In US9388193B2, “Dipicolylamine derivatives and their pharmaceutical uses” (National Health Research Institutes, priority 2014, dated 2016):

Legend:
SCM-1 cells = experiment: Cell viability MTS assay, SCM-1; type: cell-based; details: Homo sapiens, 72 hours incubation
Experimental: (§1) SCM-1, MiaPaca2 and Colo205 cells were grown in RPMI 1640 (Roswell Park Memorial Institute) medium (RPMI; Gibco), supplemented with 10% fetal bovine serum (FBS; Gibco). Detroit551 cells were grown in Dulbecco's modified Eagle's medium (DMEM) supplemented with 10% FBS 50 U/mL of penicillin and streptomycin, and 1% Nonessential amino acids (NEAA; Gibco).
(§2) Zn-DPA conjugates, Zn-DPA-(8), Zn-DPA-(12), Zn-DPA-(25), Zn-DPA-(26), and Zn-DPA-(42) prepared from the corresponding compounds 8, 12, 25, 26, and 42, respectively, were used to inhibit the growth of human cancer cells (SCM-1, Colo205, MiaPaca2) and human embryonic skin fibroblast cells Detroit551 following the procedures described below.
(§3) Cell viability was examined by the MTS assay (Promega, Madison, Wis., USA). More specifically, cells were grown (2500˜3000 cells/well) in a flat bottomed 96-well plate for 24 hours. A medium was added along with a test compound at a pre-determined concentration. The cells were further incubated for 72 hours. At the end of the incubation, the medium was removed and […] with 100 μl of a 3-(4,5-dimethylthiazol-2-yl)-5-(3-carboxymethoxyphenyl)-2-(4-sulfophenyl)-2H-tetrazolium/phenazine methosulfate mixture. The cells were again incubated for 1.5 hours at 37° C. in a humidified incubator with 5% CO2 to allow viable cells to convert the tetrazolium salt into formazan. The conversion was determined by measuring the absorbance at 490 nm using a BioTek PowerWave-X Absorbance Microplate Reader.
(§4) The data obtained were normalized using a vehicle (dimethyl sulfoxide, DMSO)-treated control (100% viability) and a background control (0% viability) to verify growth inhibition. The IC50 value is defined as the concentration of a compound that induces a 50% reduction in cell viability in comparison with a vehicle-treated control. These values were calculated using GraphPad Prism version 4 software (San Diego, Calif., USA).

[1] = type: in vitro ADME; details: mouse, plasma; for Stability (percentage remaining), time = 0: 0 h
Experimental: Plasma Stability of Zn-DPA Conjugates
Zn-DPA conjugates, Zn-DPA-(8), Zn-DPA-(12), Zn-DPA-(25), Zn-DPA-(26), and Zn-DPA-(42) prepared from the corresponding compounds 8, 12, 25, 26, and 42, respectively, were incubated in mouse plasma at 37° C. for up to 24 hours to assess the stability of these conjugates.
A sample was analyzed with a High Performance Liquid Chromatography system to determine the concentration of a test conjugate at one of four time points (i.e., 0, 3 hours, 6 hours, and 24 hours). The percentages of the test conjugate remaining at 3, 6, and 24 hours after incubation in the plasma were determined. A higher percentage indicates greater stability.

Colo205 cells = experiment: Cell viability MTS assay, Colo205; type: cell-based; details: Homo sapiens, COLO 205, 72 hours incubation
Experimental: as §1, §2, §3, §4

[2] = test system: human embryonic skin fibroblast Detroit 551; experiment: Cell viability MTS assay, Detroit 551; type: cell-based; details: 72 hours incubation
Experimental: as §1, §2, §3, §4

MiaPaca2 cells = experiment: Cell viability MTS assay, MiaPaca2; type: cell-based; details: Homo sapiens, MIA PaCa-2, 72 hours incubation
Experimental: as §1, §2, §3, §4

Colo205 tumors = experiment: In vivo antitumor assay, Colo205 tumor xenograft mouse model; design: species or system nude mice; details: compared to SN-38 at 10 mg/kg and CPT-11 at 40 mg/kg
Experimental: (§5) Two Zn-DPA conjugates, Zn-DPA-(26) and Zn-DPA-(42) were subjected to an in vivo antitumor assay against Colo205 or MiaPaca2 tumors growing in nude mice following the procedure described below.
(§6) More specifically, Colo205 or MiaPaca2 cells were cultured and maintained in a flask with a RPMI-1640 medium, which was supplemented with 10% FBS. The cells were harvested and innoculated (1×10^6 cells) subcutaneously into the left flank of a adult male nude mouse. Tumor-bearing mice were grouped at the mean tumor volume of approximately 200 mm^3. Tumor dimensions were measured with a digital caliper, and the tumor volume in mm^3 was calculated by the formula: Volume=(length×width^^2)/2.
(§7) The mice were housed in sterilized cages equipped with an air filter and sterile bedding materials at the Laboratory Animal Center of National Health Research Institutes. All mice were fed with sterilized water and chow at libitum under 12-hour light/12-hour dark cycle throughout the study.
(§8) Several dosages of Zn-DPA-(26) and Zn-DPA-(42), were used in this assay, i.e., 40 mg/kg, 20 mg/kg, and 10 mg/kg, p<0.05 vs. vehicle control by one-way ANOVA analysis and the Newman-Keuls multiple comparison test. […]

MiaPaca2 tumors = experiment: In vivo antitumor assay, MiaPaca2 tumor xenograft mouse model; design: species or system nude mice; details: i.v., 40, 20 and 10 mg/kg, compared to SN-38 at 10 mg/kg and CPT-11 at 40 mg/kg
Experimental: as §5, §6, §7, §8

SMILES | IC50 (SCM-1 cells) [nM] | Stability (percentage remaining), time = 0 [1] [%] | Stability (percentage remaining), time = 3 hr [1] [%] | Stability (percentage remaining), time = 6 hr [1] [%] | IC50 (Colo205 cells) [nM] | IC50 [2] [nM] | IC50 (MiaPaca2 cells) [nM] | antitumor activity (Colo205 tumors; i.v., dosages of 10 mg/kg and 40 mg/kg) | antitumor activity (Colo205 tumors; i.v., 40, 20 and 10 mg/kg) | antitumor activity (MiaPaca2 tumors)
CCc1c2c(nc3ccc(OC(=O)c4cccc(NC(=O)NCCCCOc5cc(CN(Cc6ccccn6)Cc6ccccn6)cc(CN(Cc6ccccn6)Cc6ccccn6)c5)c4)cc13)-c1cc3c(c(=O)n1C2)COC(=O)[C@@]3(O)CC [Zn-DPA-(8)] | 640 | 100 | 90 | 82 | 420 | 9300 |  |  |  | 
CCc1c2c(nc3ccc(O)cc13)-c1cc3c(c(=O)n1C2)COC(=O)[C@]3(O)CC [SN-38, reference compound] | 640 |  |  |  | 140 | 4000 | 20 |  |  | 
CCc1c2c(nc3ccc(OC(=O)c4ccc(CN(CCCCOc5cc(CN(Cc6ccccn6)Cc6ccccn6)cc(CN(Cc6ccccn6)Cc6ccccn6)c5)C(=O)C5(c6ccc(Cl)cc6)CCCCC5)cc4)cc13)-c1cc3c(c(=O)n1C2)COC(=O)[C@]3(O)CC [Zn-DPA-(26)] | 2600 | 100 | 99 | 97 | 1100 | > 10000 | 120 | much higher antitumor activities |  | 
CCc1c2c(nc3ccc(OC(=O)CCSC4CC(=O)N(Cc5ccc(C(=O)NCCCCOc6cc(CN(Cc7ccccn7)Cc7ccccn7)cc(CN(Cc7ccccn7)Cc7ccccn7)c6)cc5)C4=O)cc13)-c1cc3c(c(=O)n1C2)COC(=O)[C@]3(O)CC (stereo partly drawn) [Zn-DPA-(12)] | 940 | 100 | 84 | 76 | 120 | 2900 |  |  |  | 
CCc1c2c(nc3ccc(OC(=O)c4ccc(CN(CCOCCOCCNC(=O)c5ccc(CN(CCCCOc6cc(CN(Cc7ccccn7)Cc7ccccn7)cc(CN(Cc7ccccn7)Cc7ccccn7)c6)C(=O)C6(c7ccc(Cl)cc7)CCCCC6)cc5)C(=O)C5(c6ccc(Cl)cc6)CCCCC5)cc4)cc13)-c1cc3c(c(=O)n1C2)COC(=O)[C@]3(O)CC [Zn-DPA-(42)] |  | 100 | 99 | 98 | 3700 | > 10000 | 550 |  | antitumor activities in a dose-dependent manner and much higher antitumor activities | antitumor activities in a dose-dependent manner and much higher antitumor activities
CCc1c2c(nc3ccc(OC(=O)N4CCC(N5CCCCC5)CC4)cc13)-c1cc3c(c(=O)n1C2)COC(=O)[C@]3(O)CC [CPT-11, reference compound] | > 10000 |  |  |  | > 10000 | > 10000 | 3600 |  |  | 
CCc1c2c(nc3ccc(OC(=O)c4ccc(CN(CCCCOc5cc(CN(Cc6ccccn6)Cc6ccccn6)cc(CN(Cc6ccccn6)Cc6ccccn6)c5)C(=O)c5c(-c6ccccc6Cl)noc5C)cc4)cc13)-c1cc3c(c(=O)n1C2)COC(=O)[C@]3(O)CC [Zn-DPA-(25)] | 1000 | 100 | 90 | 85 | 580 | 7200 |  |  |  | 
